Test results reported in ChEMBL document CHEMBL5500384, “New synergistic benzoquinone scaffolds as inhibitors of mycobacterial cytochrome bc1 complex to treat multi-drug resistant tuberculosis” (Eur J Med Chem, 2024).

Assays:
[1] = system: Mycolicibacterium smegmatis; experiment: Antibacterial activity against Mycobacterium smegmatis ATCC 14468 assessed as reduction in bacterial growth at 12 ug/ml incubated for 48 hrs by spectrometry analysis; assay type: functional; set-up: scale not given: the % may be the effect or the level left; conditions: dose 12 µg/ml
[2] = system: Mycolicibacterium smegmatis; experiment: Antibacterial activity against Mycobacterium smegmatis ATCC 14468 assessed as log2 fold change in methylase expression at 3 ug/ml incubated for 12 hrs by mass spectrometric analysis; assay type: functional; conditions: dose 3 µg/ml
[3] = system: Mycolicibacterium smegmatis; experiment: Antibacterial activity against Mycobacterium smegmatis ATCC 14468 assessed as log2 fold change in transposase expression at 3 ug/ml incubated for 12 hrs by mass spectrometric analysis; assay type: functional; conditions: dose 3 µg/ml
[4] = system: Mycolicibacterium smegmatis; experiment: Antibacterial activity against Mycobacterium smegmatis ATCC 14468 assessed as log2 fold change in citrate transporter expression at 3 ug/ml incubated for 12 hrs by mass spectrometric analysis; assay type: functional; conditions: dose 3 µg/ml
[5] = system: Mycolicibacterium smegmatis; experiment: Antibacterial activity against Mycobacterium smegmatis ATCC 14468 assessed as log2 fold change in MscS expression at 3 ug/ml incubated for 12 hrs by mass spectrometric analysis; assay type: functional; conditions: dose 3 µg/ml
[6] = system: Mycolicibacterium smegmatis; experiment: Antibacterial activity against Mycobacterium smegmatis ATCC 14468 assessed as log2 fold change in integral membrane protein expression at 3 ug/ml incubated for 12 hrs by mass spectrometric analysis; assay type: functional; conditions: dose 3 µg/ml
[7] = system: Mycolicibacterium smegmatis; experiment: Antibacterial activity against Mycobacterium smegmatis ATCC 14468 assessed as log2 fold change in signal transduction histidine kinase expression at 3 ug/ml incubated for 12 hrs by mass spectrometric analysis; assay type: functional; conditions: dose 3 µg/ml
[8] = system: Mycolicibacterium smegmatis; experiment: Antibacterial activity against Mycobacterium smegmatis ATCC 14468 assessed as log2 fold change in MmpL protein expression at 3 ug/ml incubated for 12 hrs by mass spectrometric analysis; assay type: functional; conditions: dose 3 µg/ml
[9] = system: Mycolicibacterium smegmatis; experiment: Antibacterial activity against Mycobacterium smegmatis ATCC 14468 assessed as log2 fold change in probable cytochrome c oxidase subunit 3 expression at 3 ug/ml incubated for 12 hrs by mass spectrometric analysis; assay type: functional; conditions: dose 3 µg/ml
[10] = system: Mycolicibacterium smegmatis; experiment: Antibacterial activity against Mycobacterium smegmatis ATCC 14468 assessed as log2 fold change in cytochrome P450 107B1 expression at 3 ug/ml incubated for 12 hrs by mass spectrometric analysis; assay type: functional; conditions: dose 3 µg/ml
[11] = Cytotoxicity against african green monkey Vero cells assessed as cell viability at 50 ug/ml by MTT assay; assay type: toxicity, cell-based; conditions: chlorocebus sabaeus, at 50 µg/mL, read-out: Activity
[12] = Cytotoxicity against african green monkey Vero cells assessed as cell viability at 25 ug/ml by MTT assay; assay type: toxicity, cell-based; conditions: chlorocebus sabaeus, at 25 µg/mL, read-out: Activity
[13] = Cytotoxicity against african green monkey Vero cells assessed as cell viability at 12.5 ug/ml by MTT assay; assay type: toxicity, cell-based; conditions: chlorocebus sabaeus, at 12.5 µg/mL, read-out: Activity
[14] = Cytotoxicity against african green monkey Vero cells assessed as cell viability at 6.25 ug/ml by MTT assay; assay type: toxicity, cell-based; conditions: chlorocebus sabaeus, at 6.25 µg/mL, read-out: Activity
[15] = Acute toxicity in Albino mouse assessed as change in hemoglobin level at 50 to 2000 mg/kg, po measured after 14 days (reference value: 12.8 g/dl); assay type: organism-based; conditions: in vivo, 336 h, dose 50-2000 mg/kg, time 14 day
[16] = Acute toxicity in Albino mouse assessed as change in total leucocyte count at 50 to 2000 mg/kg, po measured after 14 days (reference value: 7400 mm3); assay type: organism-based; conditions: in vivo, 336 h, dose 50-2000 mg/kg, time 14 day
[17] = Acute toxicity in Albino mouse assessed as change in neutrophils at 50 to 2000 mg/kg, po measured after 14 days (reference value: 75%); assay type: organism-based; conditions: in vivo, 336 h, dose 50-2000 mg/kg, time 14 day
[18] = Acute toxicity in Albino mouse assessed as change in lymphocytes at 50 to 2000 mg/kg, po measured after 14 days (reference value: 21%); assay type: organism-based; conditions: in vivo, 336 h, dose 50-2000 mg/kg, time 14 day
[19] = Acute toxicity in Albino mouse assessed as change in eosinophils at 50 to 2000 mg/kg, po measured after 14 days (reference value: 3%); assay type: organism-based; conditions: in vivo, 336 h, dose 50-2000 mg/kg, time 14 day
[20] = Acute toxicity in Albino mouse assessed as change in SGOT count at 50 to 2000 mg/kg, po measured after 14 days (reference value: 42 IU/L); assay type: organism-based; conditions: in vivo, 336 h, dose 50-2000 mg/kg, time 14 day
[21] = Acute toxicity in Albino mouse assessed as change in SGPT count at 50 to 2000 mg/kg, po measured after 14 days (reference value: 52 IU/L); assay type: organism-based; conditions: in vivo, 336 h, dose 50-2000 mg/kg, time 14 day
[22] = Acute toxicity in Albino mouse assessed as change in serum creatine level at 50 to 2000 mg/kg, po measured after 14 days (reference value: 0.9 mg/dl); assay type: organism-based; conditions: in vivo, 336 h, dose 50-2000 mg/kg, time 14 day
[23] = Acute toxicity in Albino mouse assessed as change in serum urea level at 50 to 2000 mg/kg, po measured after 14 days (reference value: 46 mg/dl); assay type: organism-based; conditions: in vivo, 336 h, dose 50-2000 mg/kg, time 14 day
[24] = system: Mycolicibacterium smegmatis; experiment: Antibacterial activity against Mycobacterium smegmatis ATCC 14468 assessed as log2 fold change in beta-alanine metabolite level by mass spectrometry analysis; assay type: functional
[25] = system: Mycolicibacterium smegmatis; experiment: Antibacterial activity against Mycobacterium smegmatis ATCC 14468 assessed as log2 fold change in N-Acetyl-l-glutamic acid metabolite level by mass spectrometry analysis; assay type: functional
[26] = system: Mycolicibacterium smegmatis; experiment: Antibacterial activity against Mycobacterium smegmatis ATCC 14468 assessed as log2 fold change in DL-gamma-Amino-beta-hydroxybutyric acid metabolite level by mass spectrometry analysis; assay type: functional
[27] = system: Mycolicibacterium smegmatis; experiment: Antibacterial activity against Mycobacterium smegmatis ATCC 14468 assessed as log2 fold change in (22S)-22-hydroxycampest-4-en-3-one metabolite level by mass spectrometry analysis; assay type: functional
[28] = Renal toxicity in Albino mouse assessed as change in renal corpuscles at 50 to 2000 mg/kg, po measured after 14 days; assay type: organism-based; conditions: in vivo, 336 h, dose 50-2000 mg/kg, time 14 day
[29] = Renal toxicity in Albino mouse assessed as change in renal tubules at 50 to 2000 mg/kg, po measured after 14 days; assay type: organism-based; conditions: in vivo, 336 h, dose 50-2000 mg/kg, time 14 day
[30] = Renal toxicity in Albino mouse assessed as change in Bowman's capsule at 50 to 2000 mg/kg, po measured after 14 days; assay type: organism-based; conditions: in vivo, 336 h, dose 50-2000 mg/kg, time 14 day
[31] = Renal toxicity in Albino mouse assessed as change in proximal convoluted tubules at 50 to 2000 mg/kg, po measured after 14 days; assay type: organism-based; conditions: in vivo, 336 h, dose 50-2000 mg/kg, time 14 day
[32] = Renal toxicity in Albino mouse assessed as change in tubular capillaries at 50 to 2000 mg/kg, po measured after 14 days; assay type: organism-based; conditions: in vivo, 336 h, dose 50-2000 mg/kg, time 14 day
[33] = Hepatotoxicity in Albino mouse assessed as change in portal tracks at 50 to 2000 mg/kg, po measured after 14 days; assay type: toxicity, organism-based; conditions: in vivo, 336 h, dose 50-2000 mg/kg, time 14 day
[34] = Hepatotoxicity in Albino mouse assessed as change in portal vein at 50 to 2000 mg/kg, po measured after 14 days; assay type: toxicity, organism-based; conditions: in vivo, 336 h, dose 50-2000 mg/kg, time 14 day
[35] = Pulmonary toxicity in Albino mouse assessed as change in bronchi structure at 50 to 2000 mg/kg, po measured after 14 days; assay type: organism-based; conditions: in vivo, 336 h, dose 50-2000 mg/kg, time 14 day
[36] = Pulmonary toxicity in Albino mouse assessed as change in alveoli structure at 50 to 2000 mg/kg, po measured after 14 days; assay type: organism-based; conditions: in vivo, 336 h, dose 50-2000 mg/kg, time 14 day
[37] = Pulmonary toxicity in Albino mouse assessed as change in squamous pneumocytes at 50 to 2000 mg/kg, po measured after 14 days; assay type: organism-based; conditions: in vivo, 336 h, dose 50-2000 mg/kg, time 14 day
[38] = Pulmonary toxicity in Albino mouse assessed as appearance of cilia at 50 to 2000 mg/kg, po measured after 14 days; assay type: organism-based; conditions: in vivo, 336 h, dose 50-2000 mg/kg, time 14 day
[39] = system: Mycolicibacterium smegmatis; experiment: Antibacterial activity against Mycobacterium smegmatis ATCC 14468 assessed as log2 fold change in l-Glutathione oxidized metabolite level by mass spectrometry analysis; assay type: functional

SMILES: COc1ccc(C2C(Cl)C(=O)N2C2=C(Cl)C(=O)c3ccccc3C2=O)cc1 (configuration not stated)
- Activity [1]: 80%
- log2FC [2]: -6.64
- log2FC [3]: -1.22
- log2FC [4]: -1.76
- log2FC [5]: -2.45
- log2FC [6]: -6.64
- log2FC [7]: -6.64
- log2FC [8]: -1.45
- log2FC [9]: 2.57
- log2FC [10]: 6.64
- viability at 50 ug/ml [11]: 8.7%
- viability at 25 ug/ml [12]: 37.6%
- viability at 12.5 ug/ml [13]: 68.1%
- viability at 6.25 ug/ml [14]: 100%
- Activity [15]: 13.9 g/dL
- Activity [16]: 9600 mm3
- Activity [17]: 62%
- Activity [18]: 32%
- Activity [19]: 4%
- Activity [20]: 95 IU/L
- Activity [21]: 64 IU/L
- Activity [22]: 0.8 mg/dL
- Activity [23]: 50 mg/dL
- log2FC [24]: -2.47
- log2FC [25]: -1.34
- log2FC [26]: -2.72
- log2FC [27]: 2.67
- Activity [28]: Non-Toxic
- Activity [29]: Non-Toxic
- Activity [30]: Non-Toxic
- Activity [31]: Non-Toxic
- Activity [32]: Non-Toxic
- Activity [33]: Non-Toxic
- Activity [34]: Non-Toxic
- Activity [35]: Non-Toxic
- Activity [36]: Non-Toxic
- Activity [37]: Non-Toxic
- Activity [38]: Non-Toxic
- log2FC [39]: -1.04

SMILES: CN(C)c1ccc(C2C(Cl)C(=O)N2C2=C(Cl)C(=O)c3ccccc3C2=O)cc1 (configuration not stated)
- Activity [1]: 80%
- log2FC [2]: -1.9
- log2FC [3]: -6.64
- log2FC [4]: -1.02
- log2FC [5]: -3.03
- log2FC [6]: -1.06
- log2FC [7]: -6.64
- log2FC [8]: -6.64
- log2FC [9]: 2.37
- log2FC [10]: 6.64
- viability at 50 ug/ml [11]: 25.4%
- viability at 25 ug/ml [12]: 40.9%
- viability at 12.5 ug/ml [13]: 79.5%
- viability at 6.25 ug/ml [14]: 100%
- Activity [15]: 14.3 g/dL
- Activity [16]: 9300 mm3
- Activity [17]: 60%
- Activity [18]: 34%
- Activity [19]: 5%
- Activity [20]: 109 IU/L
- Activity [21]: 73 IU/L
- Activity [22]: 0.7 mg/dL
- Activity [23]: 48 mg/dL
- log2FC [24]: -1.29
- log2FC [25]: -1.04
- log2FC [26]: -1.1
- log2FC [27]: 3.41
- Activity [28]: Non-Toxic
- Activity [29]: Non-Toxic
- Activity [30]: Non-Toxic
- Activity [31]: Non-Toxic
- Activity [32]: Non-Toxic
- Activity [33]: Non-Toxic
- Activity [34]: Non-Toxic
- Activity [35]: Non-Toxic
- Activity [36]: Non-Toxic
- Activity [37]: Non-Toxic
- Activity [38]: Non-Toxic
- log2FC [39]: -1.8

SMILES: O=C1C(Cl)=C(Cl)C(=O)c2ccccc21 [Dichlon]
- Activity [1]: 80%
- log2FC [2]: -1.53
- log2FC [3]: -1.92
- log2FC [4]: -3.36
- log2FC [5]: -4.39
- log2FC [6]: -6.64
- log2FC [7]: -6.64
- log2FC [8]: -6.64
- log2FC [9]: 2.56
- log2FC [10]: 6.64
- viability at 50 ug/ml [11]: 36.1%
- viability at 25 ug/ml [12]: 67.1%
- viability at 12.5 ug/ml [13]: 100%
- viability at 6.25 ug/ml [14]: 100%
- Activity [15]: 14.3 g/dL
- Activity [16]: 10400 mm3
- Activity [17]: 43%
- Activity [18]: 53%
- Activity [19]: 3%
- Activity [20]: 29 IU/L
- Activity [21]: 17 IU/L
- Activity [22]: 0.8 mg/dL
- Activity [23]: 51 mg/dL
- log2FC [24]: -1
- log2FC [25]: -0.61
- log2FC [26]: -2.75
- log2FC [27]: -2.01
- Activity [28]: Non-Toxic
- Activity [29]: Non-Toxic
- Activity [30]: Non-Toxic
- Activity [31]: Non-Toxic
- Activity [32]: Non-Toxic
- Activity [33]: Non-Toxic
- Activity [34]: Non-Toxic
- Activity [35]: Non-Toxic
- Activity [36]: Non-Toxic
- Activity [37]: Non-Toxic
- Activity [38]: Non-Toxic
- log2FC [39]: -2.01
